Reference: patent publication US8722683B2, “Benzodioxole piperazine compounds” (Hoffmann LA-Roche Inc., priority 2011, dated 2014)
Read-outs that look alike come from different tables or passages of the source.

Legend:
5-HT2A receptor = 5-HT2A receptor (Homo sapiens (Human), UniProt P28223); test: Radioligand binding ([3H]-ketanserin) to cloned 5-HT2A receptor expressed in HEK-293 EBNA cells
Procedure: (§1) HEK293 EBNA cells were transiently transfected with expression plasmids encoding for the human D2 or D3 or for the human 5-HT2A receptor, respectively. The cells were harvested 48 h post-transfection, washed three times with cold PBS and stored at −80° C. prior to use. The pellet was suspended in cold 50 mM Tris-HCl buffer containing 10 mM EDTA (pH 7.4) and was homogenized with a Polytron (Kinematica AG, Basel, Switzerland) for 20-30 sec at 12.000 rpm. After centrifugation at 48.000×g for 30 min at 4° C., the pellet was resuspended in cold 10 mM Tris-HCl buffer containing 0.1 mM EDTA (pH 7.4), homogenized, and centrifuged as above. This pellet was further resuspended in a smaller volume of ice cold 10 mM Tris-HCl buffer containing 0.1 mM EDTA (pH 7.4) and homogenized with a Polytron for 20-30 sec at 12.000 rpm. The protein content of this homogenate was determined with the Bio-Rad (Bradford) Protein Assay (Biorad Laboratories GmbH, München, Germany) according to the instructions of the manufacturer using gamma globulin as the standard. This homogenate was stored at −80° C. in aliquots and thawed immediately prior to use.
(§2) Radioligand Binding Assay
(§3) Aliquots of membrane preparations were thawed at RT, resupended in assay buffer (D2, D3: 50 mM Tris-HCl, 120 mM NaCl, 5 mM MgCl2, 1 mM EDTA, 5 mM KCl, 1.5 mM CaCl2, pH=7.4; 5-HT2A: 50 mM Tris-HCl, 10 mM MgCl2, 1 mM EGTA, pH=7.4), homogenized with a Polytron for 20-30 sec at 12.000 rpm and adjusted to a final concentration of approximately 7.5 μg protein/well (D2, D3) and 15 μg protein/well (5-HT2A), respectively.
(§4) The binding affinity (Ki) of the compounds was determined using radioligand binding. […] The nonspecific binding was determined with equally composed reaction mixtures in the presence of 10 μM unlabelled spiperone. Per well 45 μl of Microscint 40 (Perkin Elmer, Schwerzenbach, Switzerland) was added, plates for sealed, shaken for 20 min and counted for 3 min on a Topcount Microplate Scintillation Counter (Canberra Packard SA, Zürich, Switzerland) with quenching correction.
(§5) The CPM value for each duplicate of a concentration of competing compound was averaged (y1), then the % specific binding was calculated according to the equation (((y1−non-specific)/(total binding−non-specific))×100). Graphs were plotted with the % specific binding using XLfit, a curve fitting program that iteratively plots the data using Levenberg-Marquardt algorithm. The single site competition analysis equation used was y=A+((B−A)/(1+((x/C)D))), where y is the % specific binding, A is the minimum y, B is the maximum y, C is the IC50, x is the log 10 of the concentration of the competing compound and D is the slope of the curve (the Hill Coefficient). […] The affinity constant (Ki) was calculated using the Cheng-Prusoff equation Ki=(IC50/1+([L]/Kd), where [L] is the concentration of radioligand and Kd is the dissociation constant of the radioligand at the receptor as determined by the saturation isotherm.

D2 receptor = D2 receptor (Homo sapiens (Human), UniProt P14416); test: Radioligand binding ([3H]-spiperone) to cloned D2 receptor expressed in HEK-293 EBNA cells; details: HEK293 EBNA membranes, 0.7 nM [3H]-spiperone
D2 receptor, sequence (P14416 whole entry): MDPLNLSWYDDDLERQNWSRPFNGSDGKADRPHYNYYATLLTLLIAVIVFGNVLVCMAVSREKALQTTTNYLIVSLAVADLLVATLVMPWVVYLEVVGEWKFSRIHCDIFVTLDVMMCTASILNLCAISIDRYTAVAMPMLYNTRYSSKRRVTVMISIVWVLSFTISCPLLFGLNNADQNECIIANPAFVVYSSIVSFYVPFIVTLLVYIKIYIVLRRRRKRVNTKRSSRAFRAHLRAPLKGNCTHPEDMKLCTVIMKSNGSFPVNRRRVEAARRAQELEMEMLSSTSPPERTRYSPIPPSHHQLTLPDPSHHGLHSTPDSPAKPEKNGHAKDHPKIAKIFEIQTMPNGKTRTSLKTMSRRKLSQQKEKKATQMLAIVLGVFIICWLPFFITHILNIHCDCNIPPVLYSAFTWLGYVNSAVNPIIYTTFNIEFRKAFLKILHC
Procedure: as §1, §2, §3, §4, §5

D3 receptor = D3 receptor (Homo sapiens (Human), UniProt P35462); test: Radioligand binding ([3H]-spiperone) to cloned D3 receptor expressed in HEK-293 EBNA cells; details: HEK293 EBNA membranes, 0.5 nM [3H]-spiperone
D3 receptor, sequence (P35462 whole entry): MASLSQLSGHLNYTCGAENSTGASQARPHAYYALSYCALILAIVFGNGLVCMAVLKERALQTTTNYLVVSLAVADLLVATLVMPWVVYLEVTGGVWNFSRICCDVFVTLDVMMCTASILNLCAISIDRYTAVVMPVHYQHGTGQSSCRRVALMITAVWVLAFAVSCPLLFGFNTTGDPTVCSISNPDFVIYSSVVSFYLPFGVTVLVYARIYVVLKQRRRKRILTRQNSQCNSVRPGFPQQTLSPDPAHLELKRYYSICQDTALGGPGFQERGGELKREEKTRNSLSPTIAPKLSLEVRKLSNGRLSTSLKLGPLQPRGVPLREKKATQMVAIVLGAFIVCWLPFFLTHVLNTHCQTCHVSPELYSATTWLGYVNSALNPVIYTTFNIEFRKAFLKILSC
Procedure: as §1, §2, §3
The binding affinity (Ki) of the compounds was determined using radioligand binding. […] At the end of the incubation, the reaction mixtures were filtered on to unifilter 96-well white microplates with bonded GF/C filters (Packard BioScience, Zürich, Switzerland; preincubated for 1 h in 0.1% polyethylenimine (PEI) in assay buffer) with a Filtermate 196 harvester (Packard BioScience) and washed 3 times with cold assay buffer. The nonspecific binding was determined with equally composed reaction mixtures in the presence of 10 μM unlabelled spiperone. Per well 45 μl of Microscint 40 (Perkin Elmer, Schwerzenbach, Switzerland) was added, plates for sealed, shaken for 20 min and counted for 3 min on a Topcount Microplate Scintillation Counter (Canberra Packard SA, Zürich, Switzerland) with quenching correction.
as §5

[1] = human 5-HT2A receptor, HEK293 EBNA membranes, 1.1 nM [3H]-ketanserin

5-HT2A receptor, sequence (P28223 whole entry): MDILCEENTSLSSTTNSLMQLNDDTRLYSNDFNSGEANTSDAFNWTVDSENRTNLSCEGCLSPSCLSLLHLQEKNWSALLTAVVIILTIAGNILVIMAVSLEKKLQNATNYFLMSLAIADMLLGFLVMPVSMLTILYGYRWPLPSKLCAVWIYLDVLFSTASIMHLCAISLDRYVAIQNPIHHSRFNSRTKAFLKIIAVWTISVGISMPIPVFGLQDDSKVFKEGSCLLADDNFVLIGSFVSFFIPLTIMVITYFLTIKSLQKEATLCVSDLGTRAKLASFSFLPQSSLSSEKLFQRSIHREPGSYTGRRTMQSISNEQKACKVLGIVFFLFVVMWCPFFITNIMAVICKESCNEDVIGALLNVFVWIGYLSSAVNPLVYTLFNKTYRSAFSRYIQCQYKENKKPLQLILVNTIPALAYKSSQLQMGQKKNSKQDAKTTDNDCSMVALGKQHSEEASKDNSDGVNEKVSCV

| Structure (SMILES) | Ki (5-HT2A receptor; [1]) [nM] | Ki (D2 receptor) [nM] | Ki (5-HT2A receptor) [nM] | Ki (D3 receptor) [nM] |
| --- | --- | --- | --- | --- |
| O=C(C[C@H]1COCCO1)N[C@H]1CC[C@H](CCN2CCN(c3cccc4c3OCO4)CC2)CC1 (single isomer, unassigned) [Example 4, Trans-N-{4-[2-(4-Benzo[1,3]dioxol-4-yl-piperazin-1-yl)-ethyl]-cyclohexyl}-2-(S) or (R)[1,4]dioxan-2-yl-acetamide] | 7.78 | – | – | – |
| O=C(C[C@@H]1COCCO1)N[C@H]1CC[C@H](CCN2CCN(c3cccc4c3OCO4)CC2)CC1 (single isomer, unassigned) [Example 5, Trans-N-{4-[2-(4-Benzo[1,3]dioxol-4-yl-piperazin-1-yl)-ethyl]-cyclohexyl}-2-(R) or (S)-[1,4]dioxan-2-yl-acetamide] | 12.3 | – | – | – |
| O=C(C[C@@H]1CCCOC1)N[C@H]1CC[C@H](CCN2CCN(c3cccc4c3OCO4)CC2)CC1 (single isomer, unassigned) [Example 32, Trans-N-{4-[2-(4-Benzo[1,3]dioxol-4-yl-piperazin-1-yl)-ethyl]-cyclohexyl}-2-(S) or (R)-tetrahydro-pyran-3-yl-acetamide] | 26.2 | 137 | – | – |
| O=C(C[C@H]1CCCOC1)N[C@H]1CC[C@H](CCN2CCN(c3cccc4c3OCO4)CC2)CC1 (single isomer, unassigned) [Example 33, Trans-N-{4-[2-(4-Benzo[1,3]dioxol-4-yl-piperazin-1-yl)-ethyl]-cyclohexyl}-2-(R) or (S)-tetrahydro-pyran-3-yl-acetamide] | 24.4 | 184 | – | – |
| O=C(CC1COCCO1)N[C@H]1CC[C@H](CCN2CCN(c3cccc4c3OCO4)CC2)CC1 (stereo partly drawn) [Example 3, Trans-N-{4-[2-(4-Benzo[1,3]dioxol-4-yl-piperazin-1-yl)-ethyl]-cyclohexyl}-2-[1,4]dioxan-2-yl-acetamide] | – | 198 | 11.8 | – |
| O=C(N[C@H]1CC[C@H](CCN2CCN(c3cccc4c3OCO4)CC2)CC1)C1CC1(F)F (stereo partly drawn) [Example 20, Trans-2,2-Difluoro-cyclopropanecarboxylic acid {4-[2-(4-benzo[1,3]dioxol-4-yl-piperazin-1-yl)-ethyl]-cyclohexyl}-amide] | – | 144 | 26.8 | 2.55 |
| COC(C)CC(=O)N[C@H]1CC[C@H](CCN2CCN(c3cccc4c3OCO4)CC2)CC1 (stereo partly drawn) [Example 21, Trans-N-{4-[2-(4-Benzo[1,3]dioxol-4-yl-piperazin-1-yl)-ethyl]-cyclohexyl}-3-methoxy-butyramide] | – | 181 | 24.3 | 2.76 |
| CCC(O)C(=O)N[C@H]1CC[C@H](CCN2CCN(c3cccc4c3OCO4)CC2)CC1 (stereo partly drawn) [Example 38, Trans-N-{4-[2-(4-Benzo[1,3]dioxol-4-yl-piperazin-1-yl)-ethyl]-cyclohexyl}-2-hydroxy-butyramide] | – | 122 | 25.8 | 12.5 |
| CO[C@H](C(=O)N[C@H]1CC[C@H](CCN2CCN(c3cccc4c3OCO4)CC2)CC1)C(C)C [Example 65, (S)-trans-N-{4-[2-(4-Benzo[1,3]dioxol-4-yl-piperazin-1-yl)-ethyl]-cyclohexyl}-2-methoxy-3-methyl-butyramide] | – | 112 | – | 19.9 |
| O=S(=O)(CC(F)(F)F)N[C@H]1CC[C@H](CCN2CCN(c3cccc4c3OCO4)CC2)CC1 [Example 66, 2,2,2-Trifluoro-ethanesulfonic acid-trans-N-{4-[2-(4-benzo[1,3]dioxol-4-yl-piperazin-1-yl)-ethyl]-cyclohexyl}-amide] | – | 73.8 | – | 1.88 |
| O=S(=O)(N[C@H]1CC[C@H](CCN2CCN(c3cccc4c3OCO4)CC2)CC1)c1ccc(F)cc1 [Example 68, N-trans-{4-[2-(4-Benzo[1,3]dioxol-4-yl-piperazin-1-yl)-ethyl]-cyclohexyl}-4-fluoro-benzenesulfonamide] | – | 46.2 | – | 2.2 |
| O=C(N[C@H]1CC[C@H](CCN2CCN(c3cccc4c3OCO4)CC2)CC1)C(F)(F)F [Example 70, N-trans-{4-[2-(4-Benzo[1,3]dioxol-4-yl-piperazin-1-yl)-ethyl]-cyclohexyl}-2,2,2-trifluoro-acetamide] | – | 113 | – | 4.91 |
| O=C(N[C@H]1CC[C@H](CCN2CCN(c3cccc4c3OCO4)CC2)CC1)N1CCc2ccccc21 [Example 71, 2,3-Dihydro-indole-1-carboxylic acid-trans-N-{4-[2-(4-benzo[1,3]dioxol-4-yl-piperazin-1-yl)-ethyl]-cyclohexyl}-amide] | – | 241 | – | 2.01 |
| CN(C)C(=O)N[C@H]1CC[C@H](CCN2CCN(c3cccc4c3OCO4)CC2)CC1 [Example 72, N-trans-3-{4-[2-(4-Benzo[1,3]dioxol-4-yl-piperazin-1-yl)-ethyl]-cyclohexyl}-1,1-dimethyl-urea] | – | 30.4 | – | 11.2 |
| O=C(C[C@H]1C[C@H](CO)C1)N[C@H]1CC[C@H](CCN2CCN(c3cccc4c3OCO4)CC2)CC1 [Example 74, N-trans-{4-[2-(4-Benzo[1,3]dioxol-4-yl-piperazin-1-yl)-ethyl]-cyclohexyl}-2-(3-hydroxymethyl-cyclobutyl)-acetamide] | – | 117 | – | 2.44 |
| O=C(Nc1ccc(Cl)cc1)N[C@H]1CC[C@H](CCN2CCN(c3cccc4c3OCO4)CC2)CC1 [Example 75, N-trans-1-{4-[2-(4-Benzo[1,3]dioxol-4-yl-piperazin-1-yl)-ethyl]-cyclohexyl}-3-(4-chloro-phenyl)-urea] | – | 158 | – | 1.04 |
| O=S(=O)(N[C@H]1CC[C@H](CCN2CCN(c3cccc4c3OCO4)CC2)CC1)N1CCOCC1 [Example 77, Morpholine-4-sulfonic acid-trans-N-{4-[2-(4-benzo[1,3]dioxol-4-yl-piperazin-1-yl)-ethyl]-cyclohexyl}-amide] | – | 63 | – | 1.29 |
| [2H]C1([2H])Oc2cccc(N3CCN(CC[C@H]4CC[C@H](NC(=O)C[C@H]5COCCO5)CC4)CC3)c2O1 [Example 78, N-trans-{4-[2-(4-Benzo(2,2-D2)-[1,3]dioxol-4-yl-piperazin-1-yl)-ethyl]-cyclohexyl}-2-(S)-[1,4]dioxan-2-yl-acetamide] | 13.4 | 198 | – | – |
| [2H]C1([2H])Oc2cccc(N3CCN(CC[C@H]4CC[C@H](NC(=O)COC)CC4)CC3)c2O1 [Example 79, N-trans-{4-[2-(4-Benzo(2,2-D2) [1,3]dioxol-4-yl-piperazin-1-yl)-ethyl]-cyclohexyl}-2-methoxy-acetamide] | – | 146 | – | 4.98 |
| [2H]C1([2H])Oc2cccc(N3CCN(CC[C@H]4CC[C@H](NC(=O)C(C)C)CC4)CC3)c2O1 [Example 80, N-trans-{4-[2-(4-Benzo(2,2-D2) [1,3]dioxol-4-yl-piperazin-1-yl)-ethyl]-cyclohexyl}-isobutyramide] | – | 105 | – | 2.23 |
| [2H]C1([2H])Oc2cccc(N3CCN(CC[C@H]4CC[C@H](NC(=O)C(C)(C)O)CC4)CC3)c2O1 [Example 81, N-trans-{4-[2-(4-Benzo(2,2-D2)-[1,3]dioxol-4-yl-piperazin-1-yl)-ethyl]-cyclohexyl}-2-hydroxy-2-methyl-propionamide] | – | 97.2 | – | 6.28 |
| [2H]C1([2H])Oc2cccc(N3CCN(CC[C@H]4CC[C@H](NC(=O)[C@@H](C)OC)CC4)CC3)c2O1 [Example 82, (R)—N-trans{4-[2-(4-Benzo(2,2-D2)-[1,3]dioxol-4-yl-piperazin-1-yl)-ethyl]-cyclohexyl}-2-methoxypropanamide] | – | 148 | – | 5.73 |
